In ChEMBL document CHEMBL5634144, “Design, synthesis and biological evaluation of novel DCLK1 inhibitor containing purine skeleton for the treatment of pancreatic cancer” (Eur J Med Chem, 2023):

Molecular target: T1, Serine/threonine-protein kinase DCLK1 (Homo sapiens, UniProt O15075)
T1 sequence (O15075 whole entry): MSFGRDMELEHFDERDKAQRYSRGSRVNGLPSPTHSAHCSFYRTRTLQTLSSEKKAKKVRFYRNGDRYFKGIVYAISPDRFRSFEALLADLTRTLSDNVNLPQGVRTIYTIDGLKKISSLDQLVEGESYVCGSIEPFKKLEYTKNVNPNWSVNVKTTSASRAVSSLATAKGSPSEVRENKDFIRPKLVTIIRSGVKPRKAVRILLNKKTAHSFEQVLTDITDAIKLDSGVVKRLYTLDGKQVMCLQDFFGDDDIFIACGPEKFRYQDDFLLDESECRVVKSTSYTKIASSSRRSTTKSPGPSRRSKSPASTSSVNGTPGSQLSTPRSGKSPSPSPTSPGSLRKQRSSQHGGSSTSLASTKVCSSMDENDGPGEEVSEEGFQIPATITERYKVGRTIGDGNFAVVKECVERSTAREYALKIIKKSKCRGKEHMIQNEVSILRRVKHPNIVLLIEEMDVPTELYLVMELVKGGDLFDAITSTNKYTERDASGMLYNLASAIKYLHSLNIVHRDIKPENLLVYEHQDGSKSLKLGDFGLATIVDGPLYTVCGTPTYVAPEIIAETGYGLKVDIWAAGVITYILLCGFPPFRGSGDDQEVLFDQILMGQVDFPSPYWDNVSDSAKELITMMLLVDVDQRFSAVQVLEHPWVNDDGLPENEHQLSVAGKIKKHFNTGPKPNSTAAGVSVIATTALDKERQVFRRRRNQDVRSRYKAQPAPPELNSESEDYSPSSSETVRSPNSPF
Assay: Inhibition of DCLK1 (unknown origin) preincubated for 10 mins followed by substrate/ATP addition measured after 60 mins by mobility shift assay

COc1ccccc1Nc1nc(Nc2ccccc2S(=O)(=O)C(C)C)c2nc[nH]c2n1
IC50: 171 nM
